Values after ≈ are worked out from the molar mass of the structure shown. Values joined by “and” are separate entries in the source; they are usually repeats but may differ in a detail not shown here. Identical values can stand only once. Like-named read-outs stand apart in the source and are kept apart here. Residues, ends and D or L forms follow the SMILES beside them.
How the values were obtained:
Swiss mice, kidney = assay: Nephrotoxicity in mice (kidney histopathology); assay type: in vivo, mouse; conditions: for Kidney histopathology (SQS Score): 72 mg/kg/d subcutaneously in six divided doses every 2 h, n = 3; for Kidney histopathology, mice with the SQS score: mouse, in vivo
Method: The experimental methodology has been previously reported by our group. Briefly, individual lipopeptide solutions were prepared in sterile saline (6 mg/mL). Swiss mice (female, 7-week-old, 22–28 g) were subcutaneously administered at 12 mg/kg in, 6 doses every 2 h to reach a total dose of 72 mg/kg (n = 3). For high-dose nephrotoxicity experiments, mice were intraperitoneally administered at 20 or 25 mg/kg, in 6 doses every 2 h to reach a total dose of 120 mg/kg (n = 6) or 150 mg/kg (n = 3). At 20 h after the last dose, the right kidney from each mouse was collected and placed in 10% buffered (pH 7.4) formalin (Sigma-Aldrich, Castle Hill, NSW, Australia). The kidneys were subjected to histological examination at the Australian Phenomics Network-Histopathology and Organ Pathology (University of Melbourne, Parkville, VIC, Australia), who was blind to the treatment groups.

A. baumannii ATCC 19606 = assay type: cell-based, Acinetobacter baumannii
Method: (§1) MICs were determined in cation-adjusted Mueller–Hinton broth (CaMHB) by the broth micro-dilution method against ATCC strains and clinical isolates. MICs in the presence of Survanta® were determined as described above against P. aeruginosa ATCC 27853. In the 100 μL of fresh CaMHB containing polymyxins, 10% Survanta® (v/v, 2.5 mg/mL phospholipids) was added. MICs in the presence and absence of Survanta® were compared to determine the effect of binding to lung surfactant on the antibacterial activity of polymyxins.

A. baumannii FADDI-AB034 = assay type: cell-based, Acinetobacter baumannii
Method: as §1

A. baumannii FADDI-AB030 = assay type: cell-based, Acinetobacter baumannii
Method: as §1

P. aeruginosa ATCC 27853 [1] = assay: Neutropenic mouse bloodstream infection model; assay type: in vivo; conditions: single IV dose 4 mg/kg; for Log10 CFU/mL blood at 4 h, Mean / Δlog10 CFU/mL blood (mean) / Log10 CFU/mL blood at 4 h, single mouse: 4 h; for Δlog10 CFU/mL blood (mean): treated minus control, mean of replicates; for Δlog10 CFU/mL blood (mean) / Log10 CFU/mL blood at 4 h, single mouse / Delta Log10 CFU/mL blood at 4 h, single mouse: 4 mg/kg; for Delta Log10 CFU/mL blood at 4 h, single mouse: treated mouse minus mean of vehicle mice
Method: The experimental methodology for the neutropenic mouse bloodstream infection model was described previously. Briefly, 7-week-old female Swiss mice (22–28 g) were rendered neutropenic by intraperitoneal administration of cyclophosphamide, 4 days (150 mg/kg) and 1 day (100 mg/kg) prior to inoculation. Bloodstream infection was established by intravenous administration of a 50 µL bolus of early log-phase bacterial suspension (4 × 10^8 CFU/mL). Lipopeptide solutions were prepared at 1 mg/mL (free base) in sterile saline. At 2 h after inoculation, mice (n = 3) were injected intravenously with lipopeptide solution at 4 mg/kg (free base) or saline control. At 0 and 4 h after administration, blood was collected, diluted serially in sterile saline, and plated on nutrient agar plates. Agar plates were incubated at 37 °C overnight for bacterial colony counting and the bacterial load in the blood (log10 CFU/mL) in each mouse was calculated. In vivo efficacy was calculated as the difference of the log10 CFU/mL blood values between the treated mice and the saline-treated mice at 4 h post dosing (Δlog10 CFU/mL blood = log10 [treated] CFU/mL blood − log10[control] CFU/mL blood).

[2] = test system: P. aeruginosa FADDI-PA025; assay type: cell-based, Pseudomonas aeruginosa
Method: as §1

P. aeruginosa ATCC 27853 [3] = assay type: cell-based, Pseudomonas aeruginosa
Method: as §1

[4] = test system: P. aeruginosa FADDI-PA038; assay type: cell-based, Pseudomonas aeruginosa
Method: as §1

[5] = test system: K. pneumoniae FADDI-KP032; assay type: cell-based, Klebsiella pneumoniae
Method: as §1

[6] = test system: K. pneumoniae FADDI-KP065; assay type: cell-based, Klebsiella pneumoniae
Method: as §1

| Structure (SMILES) | Kidney histopathology (SQS Score) (Swiss mice, kidney) | Kidney histopathology, mice with the SQS score (Swiss mice, kidney) | MIC A. baumannii ATCC 19606 (A. baumannii ATCC 19606; ATCC 19606) [µg/mL] | MIC A. baumannii FADDI-AB034 (A. baumannii FADDI-AB034; FADDI-AB034) [µg/mL] | MIC A. baumannii FADDI-AB030 (A. baumannii FADDI-AB030; FADDI-AB030) [µg/mL] | Log10 CFU/mL blood at 4 h, Mean (P. aeruginosa ATCC 27853 [1]) [Log10 CFU/mL blood] | Δlog10 CFU/mL blood (mean) (P. aeruginosa ATCC 27853 [1]) [log10 CFU/mL blood] | Log10 CFU/mL blood at 4 h, single mouse (P. aeruginosa ATCC 27853 [1]) | Delta Log10 CFU/mL blood at 4 h, single mouse (P. aeruginosa ATCC 27853 [1]) | MIC P. aeruginosa FADDI-PA025 ([2]; FADDI-PA025) [µg/mL] | MIC P. aeruginosa ATCC 27853 (P. aeruginosa ATCC 27853 [3]; ATCC 27853) [µg/mL] | MIC P. aeruginosa FADDI-PA038 ([4]; FADDI-PA038) [µg/mL] | MIC K. pneumoniae FADDI-KP032 ([5]; FADDI-KP032) [µg/mL] | MIC K. pneumoniae FADDI-KP065 ([6]; FADDI-KP065) [µg/mL] | also measured |
| --- | --- | --- | --- | --- | --- | --- | --- | --- | --- | --- | --- | --- | --- | --- | --- |
| CCCCCCCC(=O)N[C@@H](CCN)C(=O)N[C@H](C(=O)N[C@H](CCN)C(=O)N[C@H]1CCNC(=O)[C@H]([C@@H](C)O)NC(=O)[C@H](CCN)NC(=O)[C@H](CCN)NC(=O)[C@H]([C@@H](C)O)NC(=O)[C@@H](CC(C)C)NC(=O)[C@H](CCN)NC1=O)[C@@H](C)O [Lipopeptide F085] (HELM PEPTIDE1{[CCCCCCCC(=O)[*:2]].[Dab].T.[NCC[C@@H](N[*:1])C(=O)[*:2]].[Dab].[Dab].[dL].T.[Dab].[Dab].T}$PEPTIDE1,PEPTIDE1,5:R3-11:R2$$$V2.0) | +2 (SQS + 2 = mild to moderate damage (overall score, 15 to <30)) | 2/2 | 1 (≈ 0.875 µM) | 2 (≈ 1.75 µM) | 0.25 (≈ 0.219 µM) | 2.97 | −2.16 | 3.39 Log10 CFU/mL blood and 3.30 Log10 CFU/mL blood and 2.20 Log10 CFU/mL blood | -1.73 Log10 CFU/mL blood and -1.83 Log10 CFU/mL blood and -2.92 Log10 CFU/mL blood | 8 (≈ 7 µM) | 0.5 (≈ 0.437 µM) | 0.5 (≈ 0.437 µM) | 0.25 (≈ 0.219 µM) | <0.125 |  |
| CCCCCCCC(=O)N[C@@H](CCN)C(=O)N[C@H](C(=O)N[C@@H](CCN)C(=O)N[C@H]1CCNC(=O)[C@H]([C@@H](C)O)NC(=O)[C@H](CCN)NC(=O)[C@H](CCN)NC(=O)[C@H]([C@@H](C)O)NC(=O)[C@@H](CC(C)C)NC(=O)[C@H](CCN)NC1=O)[C@@H](C)O [Lipopeptide F100] (HELM PEPTIDE1{[CCCCCCCC(=O)[*:2]].[Dab].T.[Dab].[Dab].[Dab].[dL].T.[Dab].[Dab].T}$PEPTIDE1,PEPTIDE1,5:R3-11:R2$$$V2.0) | 0 (SQS 0 = no significant change (overall score, <1)) | 3/3 | 4 (≈ 3.5 µM) | 2 (≈ 1.75 µM) | 1 (≈ 0.875 µM) | 4.44 | −3.01 | 4.50 Log10 CFU/mL blood and 4.28 Log10 CFU/mL blood and 4.53 Log10 CFU/mL blood | -2.95 Log10 CFU/mL blood and -3.17 Log10 CFU/mL blood and -2.91 Log10 CFU/mL blood | >32 | 0.5 (≈ 0.437 µM) | 0.5 (≈ 0.437 µM) | 0.25 (≈ 0.219 µM) | <0.125 |  |
| CCCCCCCC(=O)N[C@@H](CCN)C(=O)N[C@H](C(=O)N[C@H](CO)C(=O)N[C@H]1CCNC(=O)[C@H]([C@@H](C)O)NC(=O)[C@H](CCN)NC(=O)[C@H](CCN)NC(=O)[C@H]([C@@H](C)O)NC(=O)[C@@H](CC(C)C)NC(=O)[C@H](CCN)NC1=O)[C@@H](C)O [Lipopeptide F183] (HELM PEPTIDE1{[CCCCCCCC(=O)[*:2]].[Dab].T.[dS].[Dab].[Dab].[dL].T.[Dab].[Dab].T}$PEPTIDE1,PEPTIDE1,5:R3-11:R2$$$V2.0) | 0 (SQS 0 = no significant change (overall score, <1)) | 3/3 | 1 (≈ 0.885 µM) | 0.25 (≈ 0.221 µM) | <0.125 |  |  |  |  | >32 | 4 (≈ 3.54 µM) | 4 (≈ 3.54 µM) | <0.125 | 0.25 (≈ 0.221 µM) | MIC, No Survanta (P. aeruginosa ATCC 27853 [3]; ATCC 27853): 4 µg/mL (≈ 3.54 µM) |
| CCCCCCCC(=O)N[C@@H](CCN)C(=O)N[C@H](C(=O)N[C@@H](CCN)C(=O)N[C@H]1CCNC(=O)[C@H]([C@@H](C)O)NC(=O)[C@H](CCN)NC(=O)[C@H](CCN)NC(=O)[C@H]([C@@H](C)O)NC(=O)[C@@H](C(C)C)NC(=O)[C@H](CCN)NC1=O)[C@@H](C)O [Lipopeptide F229] (HELM PEPTIDE1{[CCCCCCCC(=O)[*:2]].[Dab].T.[Dab].[Dab].[Dab].[dV].T.[Dab].[Dab].T}$PEPTIDE1,PEPTIDE1,5:R3-11:R2$$$V2.0) | 0 (SQS 0 = no significant change (overall score, <1)) | 3/3 | >32 | >32 | 32 (≈ 28.3 µM) |  |  |  |  | >32 | >32 | >32 | 1 (≈ 0.885 µM) | 2 (≈ 1.77 µM) |  |
| CCCCCCCC(=O)N[C@@H](CCN)C(=O)N[C@H](C(=O)N[C@@H](CCN)C(=O)N[C@H]1CCNC(=O)[C@H]([C@@H](C)O)NC(=O)[C@H](CCN)NC(=O)[C@H](CCN)NC(=O)[C@H]([C@@H](C)O)NC(=O)[C@@H]([C@H](C)O)NC(=O)[C@H](CCN)NC1=O)[C@@H](C)O [Lipopeptide F230] (HELM PEPTIDE1{[CCCCCCCC(=O)[*:2]].[Dab].T.[Dab].[Dab].[Dab].[dT].T.[Dab].[Dab].T}$PEPTIDE1,PEPTIDE1,5:R3-11:R2$$$V2.0) | 0 (SQS 0 = no significant change (overall score, <1)) | 3/3 | >32 | >32 | >32 |  |  |  |  | >32 | >32 | >32 | 16 (≈ 14.1 µM) | 32 (≈ 28.3 µM) |  |
| CC[C@@H]1NC(=O)[C@@H](CC(C)C)NC(=O)[C@H](CCN)NC(=O)[C@@H](NC(=O)[C@H](CN)NC(=O)[C@@H](NC(=O)[C@H](CCN)NC(=O)c2ccccc2Cl)[C@@H](C)O)CCNC(=O)[C@H]([C@@H](C)O)NC(=O)[C@H](CCN)NC(=O)[C@H](CCN)NC1=O [Lipopeptide F350] (HELM PEPTIDE1{[O=C(c1ccccc1Cl)[*:2]].[Dab].T.[NC[C@H](N[*:1])C(=O)[*:2]].[Dab].[Dab].[dL].[Abu].[Dab].[Dab].T}$PEPTIDE1,PEPTIDE1,5:R3-11:R2$$$V2.0; bridges inferred) |  |  |  |  |  |  |  |  |  |  |  |  |  |  | MIC A. baumannii ATCC 19606 (A. baumannii ATCC 19606): 8 µg/mL (≈ 7.11 µM); MIC A. baumannii FADDI-AB034 (A. baumannii FADDI-AB034; carbapenem-resistant isolate): 4 µg/mL (≈ 3.55 µM); MIC A. baumannii FADDI-AB030 (A. baumannii FADDI-AB030; carbapenem-resistant isolate): 4 µg/mL (≈ 3.55 µM); MIC P. aeruginosa FADDI-PA025 ([2]; MDR clinical isolate): 4 µg/mL (≈ 3.55 µM); MIC P. aeruginosa ATCC 27853 (P. aeruginosa ATCC 27853 [3]): 0.5 µg/mL (≈ 0.444 µM); MIC, 10% Survanta (P. aeruginosa ATCC 27853 [3]; P. aeruginosa ATCC 27853, 10% Survanta): 0.5 µg/mL (≈ 0.444 µM); MIC, No Survanta (P. aeruginosa ATCC 27853 [3]; P. aeruginosa ATCC 27853, no surfactant): 0.5 µg/mL (≈ 0.444 µM); MIC P. aeruginosa FADDI-PA038 ([4]; carbapenem-resistant isolate): 2 µg/mL (≈ 1.78 µM); MIC K. pneumoniae FADDI-KP032 ([5]; carbapenem-resistant isolate): 1 µg/mL (≈ 0.888 µM); MIC K. pneumoniae FADDI-KP065 ([6]; carbapenem-resistant isolate): 0.5 µg/mL (≈ 0.444 µM) |

Reference: publication PMC8956739, “A synthetic lipopeptide targeting top-priority multidrug-resistant Gram-negative pathogens” (Nature Communications, 2022)
